These results are taken from patent US10273206B2 (ALLERGAN, INC., priority 2014, dated 2019).

Each structure is given as a SMILES string. Where a name gives a salt, the structure may show the parent alone. Read-outs that look alike come from different tables or passages of the source.

For series [1] the following is noted: base (source of basic counter ion) used in salt screening, Table 1; cited from earlier work.
Series [2] can be described thus: Measured pKa of bimatoprost acid, used for the Henderson-Hasselbalch fit. Particulars: measured pKa used to fit solubility vs. pH plot. The format is physicochemical.
The nature of series [3]: Physical stability on storage at controlled temperature/relative humidity. It is filed as physicochemical.
Series [4] is described as follows: pH-solubility determination (shake flask in aqueous media, HPLC quantitation). The format is physicochemical. Particulars: thermodynamic from solid. The method, then: The pH was checked, and adjusted if necessary, at intervals of 1, 5, 23, 28 and 47 hrs. An aliquot of sample was taken off at 24 hrs and the final pH was recorded. The suspension was then filtered through a glass fiber C filter. The filtrate was then diluted by an appropriate factor. This was repeated at 48 hours. Quantitation was by HPLC with reference to 6 standard solutions of concentrations between 0.3873-0.0008 mg/ml dissolved in 66:21:13 H2O:ACN:MeOH.

A short description of series [5]: Gravimetric vapor sorption (GVS) analysis. It is filed as physicochemical. As to the method:
The salt was then crystallized from ethyl acetate as follows. The lyophilized solid sample in ethyl acetate was subjected to initial heat/cool cycles using an Anachem React-Array. The sample was then subjected to three heat/cool cycles by using the following procedure: heating to 50° C. at 5° C./min, holding at 50° C. for 30 minutes, followed by cooling to 0° C. at 0.1° C./min, holding at 0° C. for 1 hour under constant stirring at 500 rpm. The recovered material (crystalline form 1) was analyzed by XRPD (FIG. 6), ^1H NMR, thermal analysis, and gravimetric vapor sorption (GVS) analysis, as summarized in Table 2.
Without being bound by any particular theory, the significant uptake of moisture may be a result of the large specific surface area of the material. On desorption, the adsorbed water was rapidly lost with no equilibrium established. At the end of the gravimetric vapor sorption (GVS) cycle, at 40% RH, the overall sample mass increased by 5 wt %.

Series [6] in a line: Dissolution rate compared with the free acid. It is filed as physicochemical. Particulars: compared with bimatoprost free acid.

For the compound `CCN(CC)CCO` [2-diethylamino ethanol], in series [1], the pKa (usually the pH at which an ionisable group is half protonated) was 9.58.
On to `C[N+](C)(C)CCO` [Choline], for which the pKa in series [1] is on record as 11.00.
`NC(=O)NCCC[C@H](N)C(=O)O` [Citrulline]: the pKa in series [1] is 7.00.
For `NCCN` [Ethylenediamine], the pKa in series [1] is on record as 10.09.
With `OCCN1CCOCC1` [Hydroxyethyl-morpholine], in series [1], the pKa is 7.39.
Take `CCNC[C@H](O)[C@@H](O)[C@H](O)[C@H](O)CO` [N-ethyl-glucamine]: the pKa in series [1] is on record as 8.03.
Regarding `O=C(O)CCC/C=C\C[C@@H]1[C@@H](/C=C/[C@@H](O)CCc2ccccc2)[C@H](O)C[C@@H]1O` [bimatoprost acid, (Z)-7-[3,5-Dihydroxy-2-((E)-3-hydroxy-5-phenyl-pent-1-enyl)-cyclopentyl]-hept-5-enoic acid], in series [2], the pKa turned out to be 4.76.
On to `O=C(O)CCC/C=C\C[C@@H]1[C@@H](/C=C/[C@@H](O)CCc2ccccc2)[C@H](O)C[C@@H]1O` [tromethamine salt of (Z)-7-[3,5-Dihydroxy-2-((E)-3-hydroxy-5-phenyl-pent-1-enyl)-cyclopentyl]-hept-5-enoic acid], for which the “physically stable for (time)” value was greater than 3 months in series [3] (25° C./60% relative humidity (RH), open container closure) and greater than 3 months in series [3] (40° C./75% RH, closed container closure). Moreover, the solubility thermodynamic is roughly 250 mg/mL in series [4] (25 °C, aqueous buffer, at pH 6.8, read-out: solubility) and no less than 250 mg/mL in series [4] (pH 6.5, aqueous buffer, pH above 6.5, 25° C., FIG. 5, read-out: solubility of the salt). Besides, the solubility – broadly, how much of the substance goes into solution per volume – at 48 h in series [4] (25 °C, pH 2, aqueous buffer, pH 2 (solubility of the free acid), 25° C., FIG. 5, read-out: intrinsic solubility) was 1.39 mg/mL; in series [4] (25 °C, pH 6.5, aqueous buffer, at pH 6.5, see FIG. 5, read-out: solubility), no less than 250 mg/mL; in series [4] (25 °C, pH 6.5, aqueous buffer, pH above 6.5, 25° C., FIG. 5, read-out: solubility of the salt) it was greater than 250 mg/mL. The GVS analysis result in series [5] (90% RH) is listed as 90% RH, no deliquescence, no hydrate. The “overall sample mass increase at the end of the GVS cycle” value in series [5] (at 40% RH, end of GVS cycle) was found to be 5 wt %. The “XRPD re-analysis of the sample post GVS analysis (form change)” value in series [5] (post GVS analysis, FIG. 3) was “no change in the crystalline Form 1”. Further, the “moisture uptake behaviour on storage” value in series [5] (stored at or above 80% RH) was “behaves hygroscopically, with significant moisture uptake observed”. Moreover, the “dissolution rate relative to the free acid” value in series [6] was “faster dissolution rate than the free acid”.
